The record followed here is patent US10308654B2, “Preparation and use of kinase inhibitor” (CHANGZHOU LONGTHERA PHARMACEUTICALS INC, priority 2015, dated 2019).

In one experiment the target is CDK1/CyclinB (Homo sapiens (Human), UniProt P06493). Briefly: CDK kinase activity assay (LANCE TR-FRET, ULight-4E-BP1 substrate). The class given is biochemical. Particulars: 60 minutes incubation. As to the method: (§1) The CDK kinase used in this experiment: CDK4/CyclinD1 (invitrogen, Item No: PV4400); CDK6/CyclinD1 (invitrogen, Item No: PV4401); CDK1/CyclinB (invitrogen, Item No: PV3292).
CDK1/CyclinB, sequence (P06493 whole entry): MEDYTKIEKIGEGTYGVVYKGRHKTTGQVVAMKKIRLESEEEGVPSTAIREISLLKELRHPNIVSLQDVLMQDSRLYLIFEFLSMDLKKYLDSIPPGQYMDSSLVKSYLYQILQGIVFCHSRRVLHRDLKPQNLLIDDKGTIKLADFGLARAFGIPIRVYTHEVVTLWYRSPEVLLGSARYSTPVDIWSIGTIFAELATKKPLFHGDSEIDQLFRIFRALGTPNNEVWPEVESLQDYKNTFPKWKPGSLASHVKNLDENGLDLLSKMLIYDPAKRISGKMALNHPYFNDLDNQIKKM
CDK1/CyclinB, sequence (P14635 whole entry partner): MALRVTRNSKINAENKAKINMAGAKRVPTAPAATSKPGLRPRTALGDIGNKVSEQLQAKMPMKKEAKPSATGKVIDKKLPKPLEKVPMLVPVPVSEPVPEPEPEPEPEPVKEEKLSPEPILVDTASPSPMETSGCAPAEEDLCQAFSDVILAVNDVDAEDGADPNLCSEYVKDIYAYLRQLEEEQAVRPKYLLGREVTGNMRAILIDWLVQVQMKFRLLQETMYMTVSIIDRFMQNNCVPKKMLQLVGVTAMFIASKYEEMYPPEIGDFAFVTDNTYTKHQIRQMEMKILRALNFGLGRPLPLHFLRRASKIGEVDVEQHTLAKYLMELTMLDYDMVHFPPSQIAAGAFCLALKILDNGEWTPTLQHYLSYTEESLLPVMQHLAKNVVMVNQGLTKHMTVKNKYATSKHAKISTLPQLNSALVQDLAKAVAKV
(§2) Reagents used: Substrate is ULight-4E-BP1 (PerkinElmer, Item No: TRF0128); antibody is Eu-labeledanti-phospho-eIF4E-bindingprotein1 (Thr37/46) (Perkin-Elmer, Item No: TRF0216).
(§3) The test compound was dissolved in dimethyl sulfoxide and the solution was diluted to each concentration gradient with a buffer (50 mM HEPES, 10 mM MgCl2, 1 mM EGTA, 2 mM DTT and 0.01% Tween20) according to the test needs, the concentration of dimethyl sulfoxide was 4%. The buffer was then used to dilute ATP and the substrate ULight-4E-BP1 to prepare the mixture of 800 μM ATP and 200 nM substrate for further use. 2.5 μL of mixture of substrate and ATP or 2.5 μL of substrate was added to the wells, and then 2.5 μL of compound or 4% buffer of dimethyl sulfoxide was added, finally 5 μL of enzyme (final concentration was 0.66 μg/mL) was added, incubated avoiding light at room temperature for 60 minutes. 5 μL of EDTA stop buffer (final concentration was […]) diluted with 1×detectionbuffer (LANCEDetectionBuffer, 10×, PerkinElmer, CR97-100) was added to each well, and then 5 μL of antibody (final concentration was 2 nM) diluted with 1×detectionbuffer was added, incubated avoiding light at room temperature for 60 minutes. Perkin Elmer EnVision® TRFRETmode (Excitation wavelength: 320 nm, emission wavelength: 615 nm and 665 nm) was used to measure plates.
(§4) The inhibition rate of the sample was determined by the following formula: […]
(§5) IC50 values were calculated using GraphPadPrism software.
(In general: Time-resolved FRET reads energy transfer from a long-lived donor to a nearby acceptor.)

Another experiment concerns the target CDK4/CyclinD1 (Homo sapiens (Human), UniProt P11802). Described as above. The class given is biochemical. As to conditions: CDK4/CyclinD1, 60 minutes incubation. As to the method:
as §1, §2, §3, §4, §5

In another experiment the test system is Colo205 cells. The experiment in a line: Proliferation inhibitory activity against human colon cancer cell line Colo205 (CCK8). Type of experiment: cell-based. Particulars: COLO 205, 96 hours. How it is done:
In vitro cell assay described below could determine the proliferation inhibitory activity against human colon cancer cell line of the test compounds, and their activities could be represented by IC50 value.
Colo205 cells (Chinese Academy of Sciences typical culture storage committee cell bank) were inoculated in 96-well culture plate with a suitable cell concentration of 2000 cells per hole, 140 μL of medium per well, then incubated in a carbon dioxide incubator at 37° C. overnight. 10 μL of different concentrations of the test compounds were added and reacted for 96 hours, and then the solvent control group (negative control) was set. The proliferation inhibitory activities against tumor cells of the test compounds were tested by CCK8 (CellCounting Kit-8, Item No: CK04, purchased from Tongren Chemical) method after 96 hours. The full-wavelength microplate reader SpectraMax190 was used for reading, the measurement wavelength was 450 nm.
as §4
IC50 value was calculated by four parameter regression using microplate reader with random software.

CDK4/CyclinD1, sequence (P11802 whole entry): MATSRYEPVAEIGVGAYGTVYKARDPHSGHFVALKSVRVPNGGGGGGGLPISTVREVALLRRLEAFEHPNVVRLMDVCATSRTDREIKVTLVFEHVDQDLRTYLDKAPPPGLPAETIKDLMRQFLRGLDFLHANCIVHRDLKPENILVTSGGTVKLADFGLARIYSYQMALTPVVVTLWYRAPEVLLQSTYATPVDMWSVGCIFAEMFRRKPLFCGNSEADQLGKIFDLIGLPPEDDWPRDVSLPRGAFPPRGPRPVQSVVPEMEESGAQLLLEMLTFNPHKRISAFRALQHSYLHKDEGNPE
CDK4/CyclinD1, sequence (P24385 whole entry partner): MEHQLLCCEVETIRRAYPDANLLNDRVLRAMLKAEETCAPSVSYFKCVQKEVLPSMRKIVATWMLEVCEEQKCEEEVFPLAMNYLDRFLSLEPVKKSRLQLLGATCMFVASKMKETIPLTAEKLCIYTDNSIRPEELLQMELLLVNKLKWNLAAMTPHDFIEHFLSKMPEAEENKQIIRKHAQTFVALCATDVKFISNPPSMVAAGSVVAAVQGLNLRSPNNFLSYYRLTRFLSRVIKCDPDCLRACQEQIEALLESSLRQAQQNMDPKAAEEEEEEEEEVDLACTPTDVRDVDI

Turning to `O=C(c1cc2cnc(Nc3ccc(N4CCNCC4)cn3)nc2n1N1CCCCC1)N1CCC1` [Example 17, Azetidin-1-yl-(2-((5-(piperazin-1-yl)pyridin-2-yl)amino)-7-(piperidin-1-yl)-7H-pyrrolo[2,3-d]pyrimidin-6-yl)methanone], the IC50 (as a rule, the point on the concentration scale where inhibition reaches its midpoint) was greater than 500 nM at CDK1/CyclinB, less than 100 nM against CDK4/CyclinD1 and greater than 2000 nM with Colo205 cells.

For the compound `CN(C)C(=O)c1cc2cnc(Nc3ccc(N4CCNCC4)cn3)nc2n1N1CCCCCC1` [Example 15, 7-(hexamethyleneimin-1-yl)N,N-dimethyl-2-((5-(piperazin-1-yl)pyridin-2-yl)amino)-7H-pyrrolo[2,3-d]pyrimidine-6-carboxamide], the IC50 is greater than 500 nM against CDK1/CyclinB, less than 100 nM on CDK4/CyclinD1 and greater than 2000 nM in the experiment with Colo205 cells.

On to `CN(C)C(=O)c1cc2cnc(Nc3ccc(N4CCNCC4)cn3)nc2n1N1CCCCC1` [Example 13], for which the IC50 was less than 100 nM against CDK4/CyclinD1 and 500 to 2000 nM in the experiment on Colo205 cells.

`CN1CCN(c2ccc(Nc3ncc4cc(C(=O)N5CCCC5)n(N5CCCCC5)c4n3)nc2)CC1` [Example 21, (2-((5-(4-methylpiperazin-1-yl)pyridin-2-yl)amino)-7-(piperidin-1-yl)-7H-pyrrolo[2,3-d]pyrimidin-6-yl)-pyrrolidin-1-ylmethanone]: the IC50 is greater than 500 nM against CDK1/CyclinB, less than 100 nM against CDK4/CyclinD1 and greater than 2000 nM in the experiment with Colo205 cells.

For `CN(C)C(=O)c1cc2cnc(Nc3ccc(N4CCNCC4)cn3)nc2n1N1CCOCC1` [Example 28, N,N-dimethyl-2-((5-(piperazin-1-yl)pyridin-2-yl)amino)-7-morpholino-7H-pyrrolo[2,3-d]pyrimidine-6-carboxamide], on CDK4/CyclinD1, the IC50 fell in the range of 100 to 500 nM.

On to `CCN1CCN(c2ccc(Nc3ncc4cc(C(=O)N(C)C)n(N5CCCCC5)c4n3)nc2)CC1` [Example 26, N,N-dimethyl-2-((5-(4-ethylpiperazin-1-yl)pyridin-2-yl)amino)-7-(piperidin-1-yl)-7H-pyrrolo[2,3-d]pyrimidine-6-carboxamide], for which the IC50 at CDK1/CyclinB is greater than 500 nM; on CDK4/CyclinD1, less than 100 nM; in the experiment on Colo205 cells, 500 to 2000 nM.

`CN(C)C(=O)c1cc2cnc(Nc3ccc(N4CCN(C(=O)OC(C)(C)C)CC4)cn3)nc2n1N1CCCCC1` [Example 12]: the IC50 on CDK4/CyclinD1 is less than 100 nM; in the experiment with Colo205 cells, greater than 2000 nM.

`CN1CCN(c2ccc(Nc3ncc4cc(C(=O)N(C)C)n(N5CCOCC5)c4n3)nc2)CC1` [Example 22, N,N-dimethyl-2-((5-(4-methylpiperazin-1-yl)pyridin-2-yl)amino)-7-morpholino-7H-pyrrolo[2,3-d]pyrimidine-6-carboxamide] had an IC50 on CDK4/CyclinD1 of 100 to 500 nM.

Regarding `CN(C)C(=O)c1cc2cnc(Nc3ccc(N4CCNC(C)(C)C4)cn3)nc2n1N1CCCCC1` [Example 20, 2-((5-(3,3-dimethylpiperazin-1-yl)pyridin-2-yl)amino)-N,N-dimethyl-7-(piperidin-1-yl)-7H-pyrrolo[2,3-d]pyrimidine-6-carboxamide], the IC50 against CDK1/CyclinB is greater than 500 nM; against CDK4/CyclinD1 it was less than 100 nM; in the experiment with Colo205 cells it was 500 to 2000 nM.

For the compound `CN(C)C(=O)c1cc2cnc(Nc3ccc(N4CCNCC4)cn3)nc2n1N1CCCC1` [Example 24, N,N-dimethyl-2-((5-(piperazin-1-yl)pyridin-2-yl)amino)-7-(pyrrolidin-1-yl)-7H-pyrrolo[2,3-d]pyrimidine-6-carboxamide], the IC50 was greater than 500 nM on CDK1/CyclinB, less than 100 nM at CDK4/CyclinD1 and greater than 2000 nM with Colo205 cells.

On to `C[C@@H]1CN(c2ccc(Nc3ncc4cc(C(=O)N(C)C)n(N5CCCCC5)c4n3)nc2)C[C@H](C)N1` [Example 27, 2-((5-((3S,5R)-3,5-dimethylpiperazin-1-yl)pyridin-2-yl)amino)-N,N-dimethyl-7-(piperidin-1-yl)-7H-pyrrolo[2,3-d]pyrimidine-6-carboxamide], for which the values for the IC50 against CDK1/CyclinB, against CDK4/CyclinD1 and with Colo205 cells were greater than 500 nM, less than 100 nM and 500 to 2000 nM, respectively.

Regarding `CN1CCN(c2ccc(Nc3ncc4cc(C(=O)N(C)C)n(N5CCCCC5)c4n3)nc2)CC1` [Example 14, N,N-dimethyl-2-((5-(4-methylpiperazin-1-yl)pyridin-2-yl)amino)-7-(piperidin-1-yl)-7H-pyrrolo[2,3-d]pyrimidine-6-carboxamide], the IC50 was greater than 500 nM at CDK1/CyclinB, less than 100 nM on CDK4/CyclinD1 and 500 to 2000 nM with Colo205 cells.

In the case of `CN(C)C(=O)c1cc2cnc(Nc3ccc(N4CCOCC4)cn3)nc2n1N1CCCCC1` [Example 25, N,N-dimethyl-2-((5-morpholinopyridin-2-yl)amino)-7-(piperidin-1-yl)-7H-pyrrolo[2,3-d]pyrimidine-6-carboxamide], the IC50 against CDK1/CyclinB was greater than 500 nM; against CDK4/CyclinD1 it was less than 100 nM; in the experiment with Colo205 cells it was greater than 2000 nM.

Regarding `O=C(c1cc2cnc(Nc3ccc(N4CCNCC4)cn3)nc2n1N1CCCCC1)N1CCCC1` [Example 23, (2-((5-(piperazin-1-yl)pyridin-2-yl)amino)-7-(piperidin-1-yl)-7H-pyrrolo[2,3-d]pyrimidin-6-yl)-pyrrolidin-1-ylmethanone], the IC50 at CDK1/CyclinB was greater than 500 nM; at CDK4/CyclinD1, less than 100 nM; with Colo205 cells, greater than 2000 nM.

For the compound `CN1CCN(c2ccc(Nc3ncc4cc(C(=O)N5CCC5)n(N5CCCCC5)c4n3)nc2)CC1` [Example 16, Azetidin-1-yl-(2-((5-(4-methylpiperazin-1-yl)pyridin-2-yl)amino)-7-(piperidin-1-yl)-7H-pyrrolo[2,3-d]pyrimidin-6-yl)methanone], the figures for the 50% inhibitory concentration (IC50) against CDK1/CyclinB, at CDK4/CyclinD1 and with Colo205 cells were greater than 500 nM, less than 100 nM and 500 to 2000 nM, respectively.

With `CN(C)C(=O)c1cc2cnc(Nc3ccc(N4CCN(C(=O)OC(C)(C)C)CC4)cn3)nc2n1N1CCCC1` [Example 19, Tert-butyl 4-(6-((6-(dimethylcarbamoyl)-7-(pyrrolidin-1-yl)-7H-pyrrolo[2,3-d]pyrimidin-2-yl)amino)pyridin-3-yl)piperazine-1-carboxylate], the results for the IC50 on CDK4/CyclinD1 and in the experiment with Colo205 cells were less than 100 nM and greater than 2000 nM, respectively.

`CNC(=O)c1cc2cnc(Nc3ccc(N4CCNCC4)cn3)nc2n1N1CCCCC1` [Example 18, N-methyl-2-((5-(piperazin-1-yl)pyridin-2-yl)amino)-7-(piperidin-1-yl)-7H-pyrrolo[2,3-d] pyrimidine-6-carboxamide]: the half-maximal inhibitory concentration (IC50) on CDK1/CyclinB was greater than 500 nM; on CDK4/CyclinD1, less than 100 nM; in the experiment on Colo205 cells, 500 to 2000 nM.

On to `CCN(CC)C(=O)c1cc2cnc(Nc3ccc(N4CCNCC4)cn3)nc2n1N1CCCCC1` [Example 29, N,N-diethyl-2-((5-(piperazin-1-yl)pyridin-2-yl)amino)-7-(piperidin-1-yl)-7H-pyrrolo[2,3-d]pyrimidine-6-carboxamide], for which the IC50 was greater than 500 nM at CDK1/CyclinB, less than 100 nM against CDK4/CyclinD1 and greater than 2000 nM with Colo205 cells.
